Among the data in ChEMBL document CHEMBL1132883, “Cyclopentadienyltricarbonylrheniumbenzazepines: synthesis and binding affinity” (Bioorg Med Chem Lett, 2000) are Ki values, retold here.

A word on the Ki: it is the equilibrium dissociation constant of an inhibitor or competing ligand from its target.

What all share (assay type): tissue-based
Assay [1] addresses T1, 5-hydroxytryptamine receptor 2C (Rattus norvegicus, UniProt P08909).
T1 sequence (P08909 whole entry): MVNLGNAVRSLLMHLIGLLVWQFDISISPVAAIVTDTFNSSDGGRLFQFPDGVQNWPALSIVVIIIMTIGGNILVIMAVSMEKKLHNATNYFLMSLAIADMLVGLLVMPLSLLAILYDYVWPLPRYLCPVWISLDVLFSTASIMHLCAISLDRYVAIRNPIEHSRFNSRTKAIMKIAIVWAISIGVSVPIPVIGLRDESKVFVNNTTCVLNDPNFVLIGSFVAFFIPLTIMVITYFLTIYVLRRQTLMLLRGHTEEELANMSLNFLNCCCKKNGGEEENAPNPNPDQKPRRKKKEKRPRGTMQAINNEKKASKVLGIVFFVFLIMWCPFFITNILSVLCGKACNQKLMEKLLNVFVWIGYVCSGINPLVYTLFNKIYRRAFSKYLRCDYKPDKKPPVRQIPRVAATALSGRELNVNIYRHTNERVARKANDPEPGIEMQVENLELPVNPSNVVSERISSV
Briefly: Compound was evaluated for affinity towards cerebral 5-hydroxytryptamine 2C receptor in homogenate of caudate putamen tissue from rat brain.

The target of assay [2] is 5-hydroxytryptamine receptor 2A (Rattus norvegicus, UniProt P14842). Briefly: Compound was evaluated for affinity towards cerebral 5-hydroxytryptamine 2A receptor in homogenate of caudate putamen tissue from rat brain.
5-hydroxytryptamine receptor 2A, sequence (P14842 whole entry): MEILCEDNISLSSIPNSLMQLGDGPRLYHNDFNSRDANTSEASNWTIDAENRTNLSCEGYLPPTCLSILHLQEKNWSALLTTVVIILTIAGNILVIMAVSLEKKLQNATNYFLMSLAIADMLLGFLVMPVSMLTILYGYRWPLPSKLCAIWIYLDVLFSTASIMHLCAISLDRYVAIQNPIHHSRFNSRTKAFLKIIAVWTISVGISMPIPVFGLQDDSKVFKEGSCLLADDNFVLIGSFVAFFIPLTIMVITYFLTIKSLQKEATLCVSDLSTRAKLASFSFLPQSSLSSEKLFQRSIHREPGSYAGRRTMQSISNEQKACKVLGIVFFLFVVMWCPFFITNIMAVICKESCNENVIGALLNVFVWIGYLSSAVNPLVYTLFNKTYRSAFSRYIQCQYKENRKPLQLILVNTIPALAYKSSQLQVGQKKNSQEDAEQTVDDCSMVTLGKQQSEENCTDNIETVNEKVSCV
A further assay deals with D(1A) dopamine receptor (Rattus norvegicus, UniProt P18901). Briefly: Compound was evaluated for affinity towards dopamine D1-like receptor in homogenate of caudate putamen tissue from rat brain.
D(1A) dopamine receptor, sequence (P18901 whole entry): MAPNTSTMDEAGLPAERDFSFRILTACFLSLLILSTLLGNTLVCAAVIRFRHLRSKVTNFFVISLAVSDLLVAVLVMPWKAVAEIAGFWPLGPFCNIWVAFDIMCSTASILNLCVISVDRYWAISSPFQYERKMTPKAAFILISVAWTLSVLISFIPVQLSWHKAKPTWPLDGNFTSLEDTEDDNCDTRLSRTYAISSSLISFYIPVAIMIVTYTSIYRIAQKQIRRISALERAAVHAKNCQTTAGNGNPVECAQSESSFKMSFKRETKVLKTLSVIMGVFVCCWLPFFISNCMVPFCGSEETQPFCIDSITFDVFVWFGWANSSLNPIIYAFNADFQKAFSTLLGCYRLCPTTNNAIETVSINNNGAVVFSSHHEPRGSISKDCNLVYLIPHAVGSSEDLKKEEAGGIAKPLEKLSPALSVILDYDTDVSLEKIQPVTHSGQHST

Take `CN1CCc2cc(Cl)c(O)cc2C(c2ccccc2Br)C1` (stereo not drawn): the Ki in assay [1] worked out at 11.8 nM; in assay [2] it was 22.1 nM; on D(1A) dopamine receptor, 0.7 nM.

Turning to `CN1CCc2cc(Cl)c(O)cc2C(c2cccc(Br)c2)C1` (stereo not drawn), the inhibition constant (Ki) in assay [1] was 2.08 nM; in assay [2], 8.5 nM; at D(1A) dopamine receptor, 0.26 nM.

With `CN1CCc2cc(Cl)c(O)cc2[C@@H](c2ccccc2)C1` [SCH-23390], the figures for the inhibition constant (Ki) in assay [1] and in assay [2] were 12.5 nM and 10.8 nM, respectively.
